Source: patent US11572369B2, “Bicyclic pyridine compositions and methods of using the same for cancer therapy” (UNIVERSITY OF SOUTH CAROLINA, priority 2019, dated 2023)

Tests used:
Assay in all cases: KINOMEscan
Assay type in all cases: binding
Settings in all cases: 2000 nM
CSNK1A1 = molecular target: T1, CSNK1A1 (Homo sapiens, UniProt P48729)
T1 construct: DNA label (qPCR read-out); purchased DiscoverX (assay service)

FLT3(N841I) = molecular target: T2, FLT3(N841I) (Homo sapiens, UniProt P36888, N841I)
T2 construct: purchased KINOMEscan (DiscoveRx)

CSK = molecular target: T3, CSK (Homo sapiens, UniProt P41240)
T3 construct: DNA label; purchased DiscoveRx (KINOMEscan scanMAX panel)

DYRK2 = molecular target: T4, DYRK2 (Homo sapiens, UniProt Q92630)
T4 construct: DNA label (qPCR read-out); purchased KINOMEscan (DiscoveRx) panel

NEK1 = molecular target: T5, NEK1 (Homo sapiens, UniProt Q96PY6)
T5 construct: DNA label (for qPCR read-out); purchased KINOMEscan scanMAX panel (DiscoveRx)

MAP4K3 = MAP4K3 (Homo sapiens, UniProt Q8IVH8)
MYLK = molecular target: T6, MYLK (Homo sapiens, UniProt Q15746)
T6 construct: DNA label (for qPCR read-out); purchased KINOMEscan scanMAX panel (DiscoveRx)

LZK = LZK (Homo sapiens, UniProt O43283)
VRK2 = molecular target: T7, VRK2 (Homo sapiens, UniProt Q86Y07)
T7 construct: purchased KINOMEscan (DiscoveRx) panel service

SGK = molecular target: T8, SGK (Homo sapiens, UniProt O00141)
T8 construct: purchased DiscoveRx (KINOMEscan scanMAX panel)

AXL = molecular target: T9, AXL (Homo sapiens, UniProt P30530)
T9 construct: DNA label (qPCR read-out); purchased KINOMEscan scanMAX panel (DiscoveRx)

MST1R = molecular target: T10, MST1R (Homo sapiens, UniProt Q04912)
T10 construct: DNA label (qPCR read-out); purchased KINOMEscan scanMAX panel (DiscoveRx)

DCAMKL3 = molecular target: T11, DCAMKL3 (Homo sapiens, UniProt Q9C098)
T11 construct: DNA label (qPCR read-out); purchased KINOMEscan (DiscoveRx) panel

CASK = molecular target: T12, CASK (Homo sapiens, UniProt O14936)
T12 construct: DNA label (qPCR read-out); purchased KINOMEscan (ScanMAX panel service)

JNK1 = molecular target: T13, JNK1 (Homo sapiens, UniProt P45983)
T13 construct: DNA label (for qPCR read-out); purchased DiscoveRx (KINOMEscan scanMAX panel)

EGFR(T790M) = molecular target: T14, EGFR(T790M) (Homo sapiens, UniProt P00533, T790M)
T14 construct: purchased DiscoveRx (KINOMEscan scanMAX panel)

YSK4 = YSK4 (Homo sapiens, UniProt Q56UN5)
IGF1R = molecular target: T15, IGF1R (Homo sapiens, UniProt P08069)
T15 construct: DNA label (qPCR read-out); purchased KINOMEscan (DiscoveRx) ScanMAX panel

NDR1 = molecular target: T16, NDR1 (Homo sapiens, UniProt Q15208)
T16 construct: DNA label (for qPCR read-out); purchased KINOMEscan scanMAX panel (DiscoveRx)

PIK3CA = molecular target: T17, PIK3CA (Homo sapiens, UniProt P42336)
T17 construct: DNA label (for qPCR read-out); purchased DiscoveRx (KINOMEscan scanMAX service)

EPHB3 = molecular target: T18, EPHB3 (Homo sapiens, UniProt P54753)
T18 construct: purchased DiscoveRx (KINOMEscan scanMAX panel)

INSR = molecular target: T19, INSR (Homo sapiens, UniProt P06213)
T19 construct: DNA label (qPCR read-out); purchased KINOMEscan (DiscoveRx) ScanMAX panel

CDKL2 = molecular target: T20, CDKL2 (Homo sapiens, UniProt Q92772)
T20 construct: DNA label (for qPCR read-out); purchased DiscoveRx (KINOMEscan scanMAX service)

LATS1 = molecular target: T21, LATS1 (Homo sapiens, UniProt O95835)
T21 construct: purchased KINOMEscan (DiscoveRx) panel service

ERK8 = molecular target: T22, ERK8 (Homo sapiens, UniProt Q8TD08)
T22 construct: DNA label (qPCR read-out); purchased DiscoveRx (KINOMEscan ScanMAX panel)

SRPK1 = molecular target: T23, SRPK1 (Homo sapiens, UniProt Q96SB4)
T23 construct: purchased KINOMEscan (DiscoveRx)

MST1 = molecular target: T24, MST1 (Homo sapiens, UniProt Q13043)
T24 construct: DNA label (qPCR read-out); purchased KINOMEscan scanMAX panel (DiscoveRx)

NIM1 = molecular target: T25, NIM1 (Homo sapiens, UniProt Q8IY84)
T25 construct: DNA label (qPCR read-out); purchased KINOMEscan (ScanMAX panel service)

[1] = molecular target: ABL1(Y253F)-phosphorylated (Homo sapiens, UniProt P00519, Y253F)
MKK7 = molecular target: T26, MKK7 (Homo sapiens, UniProt O14733)
T26 construct: DNA label (qPCR read-out); purchased KINOMEscan scanMAX panel (DiscoveRx)

[2] = molecular target: T27, RPS6KA4(Kin.Dom.1-N-terminal) (Homo sapiens, UniProt O75676)
T27 construct: Kin.Dom.1; DNA label (qPCR read-out); purchased DiscoveRx (KINOMEscan ScanMAX panel)

FAK = molecular target: T28, FAK (Homo sapiens, UniProt Q05397)
T28 construct: DNA label (qPCR read-out); purchased DiscoveRx (KINOMEscan ScanMAX panel)

EGFR(S752-I759del) = molecular target: T29, EGFR(S752-I759del) (Homo sapiens, UniProt P00533, DEL752-759)
T29 construct: purchased DiscoveRx (KINOMEscan scanMAX panel)

TSSK1B = molecular target: T30, TSSK1B (Homo sapiens, UniProt Q9BXA7)
T30 construct: DNA label (for qPCR read-out); purchased DiscoveRx (KINOMEscan scanMAX panel)

[3] = molecular target: T31, TYK2(JH2domain-pseudokinase) (Homo sapiens, UniProt P29597)
T31 construct: JH2domain; DNA label (for qPCR read-out); purchased DiscoveRx (KINOMEscan scanMAX panel)

T26 sequence (O14733 whole entry): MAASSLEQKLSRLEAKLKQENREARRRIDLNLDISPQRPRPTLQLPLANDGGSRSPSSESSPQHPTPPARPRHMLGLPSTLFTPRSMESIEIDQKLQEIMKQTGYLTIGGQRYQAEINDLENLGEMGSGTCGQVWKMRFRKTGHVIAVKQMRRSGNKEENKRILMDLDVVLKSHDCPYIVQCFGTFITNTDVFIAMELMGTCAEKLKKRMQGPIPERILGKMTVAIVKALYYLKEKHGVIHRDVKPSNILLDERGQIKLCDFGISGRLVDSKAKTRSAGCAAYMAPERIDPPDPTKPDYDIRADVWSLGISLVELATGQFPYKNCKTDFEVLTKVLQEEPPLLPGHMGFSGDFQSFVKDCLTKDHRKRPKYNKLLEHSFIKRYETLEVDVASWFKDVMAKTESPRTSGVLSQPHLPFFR
T4 sequence (Q92630 whole entry): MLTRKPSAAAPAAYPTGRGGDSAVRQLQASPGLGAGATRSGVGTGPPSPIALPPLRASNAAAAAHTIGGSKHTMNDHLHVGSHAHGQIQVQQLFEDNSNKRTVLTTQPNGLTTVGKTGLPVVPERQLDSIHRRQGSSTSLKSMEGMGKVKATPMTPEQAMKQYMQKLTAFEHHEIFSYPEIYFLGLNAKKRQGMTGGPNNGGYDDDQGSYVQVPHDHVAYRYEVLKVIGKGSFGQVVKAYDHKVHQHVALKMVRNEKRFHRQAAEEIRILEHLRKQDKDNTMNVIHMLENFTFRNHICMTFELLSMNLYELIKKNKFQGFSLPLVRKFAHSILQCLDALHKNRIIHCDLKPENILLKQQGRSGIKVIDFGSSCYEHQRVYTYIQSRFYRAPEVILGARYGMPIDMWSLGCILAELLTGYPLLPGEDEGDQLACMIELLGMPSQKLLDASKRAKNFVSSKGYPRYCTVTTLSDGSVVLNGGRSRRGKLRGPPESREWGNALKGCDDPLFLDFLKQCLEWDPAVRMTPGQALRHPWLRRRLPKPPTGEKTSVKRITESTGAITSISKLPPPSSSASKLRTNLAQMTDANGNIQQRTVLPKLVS
T6 sequence (Q15746 whole entry): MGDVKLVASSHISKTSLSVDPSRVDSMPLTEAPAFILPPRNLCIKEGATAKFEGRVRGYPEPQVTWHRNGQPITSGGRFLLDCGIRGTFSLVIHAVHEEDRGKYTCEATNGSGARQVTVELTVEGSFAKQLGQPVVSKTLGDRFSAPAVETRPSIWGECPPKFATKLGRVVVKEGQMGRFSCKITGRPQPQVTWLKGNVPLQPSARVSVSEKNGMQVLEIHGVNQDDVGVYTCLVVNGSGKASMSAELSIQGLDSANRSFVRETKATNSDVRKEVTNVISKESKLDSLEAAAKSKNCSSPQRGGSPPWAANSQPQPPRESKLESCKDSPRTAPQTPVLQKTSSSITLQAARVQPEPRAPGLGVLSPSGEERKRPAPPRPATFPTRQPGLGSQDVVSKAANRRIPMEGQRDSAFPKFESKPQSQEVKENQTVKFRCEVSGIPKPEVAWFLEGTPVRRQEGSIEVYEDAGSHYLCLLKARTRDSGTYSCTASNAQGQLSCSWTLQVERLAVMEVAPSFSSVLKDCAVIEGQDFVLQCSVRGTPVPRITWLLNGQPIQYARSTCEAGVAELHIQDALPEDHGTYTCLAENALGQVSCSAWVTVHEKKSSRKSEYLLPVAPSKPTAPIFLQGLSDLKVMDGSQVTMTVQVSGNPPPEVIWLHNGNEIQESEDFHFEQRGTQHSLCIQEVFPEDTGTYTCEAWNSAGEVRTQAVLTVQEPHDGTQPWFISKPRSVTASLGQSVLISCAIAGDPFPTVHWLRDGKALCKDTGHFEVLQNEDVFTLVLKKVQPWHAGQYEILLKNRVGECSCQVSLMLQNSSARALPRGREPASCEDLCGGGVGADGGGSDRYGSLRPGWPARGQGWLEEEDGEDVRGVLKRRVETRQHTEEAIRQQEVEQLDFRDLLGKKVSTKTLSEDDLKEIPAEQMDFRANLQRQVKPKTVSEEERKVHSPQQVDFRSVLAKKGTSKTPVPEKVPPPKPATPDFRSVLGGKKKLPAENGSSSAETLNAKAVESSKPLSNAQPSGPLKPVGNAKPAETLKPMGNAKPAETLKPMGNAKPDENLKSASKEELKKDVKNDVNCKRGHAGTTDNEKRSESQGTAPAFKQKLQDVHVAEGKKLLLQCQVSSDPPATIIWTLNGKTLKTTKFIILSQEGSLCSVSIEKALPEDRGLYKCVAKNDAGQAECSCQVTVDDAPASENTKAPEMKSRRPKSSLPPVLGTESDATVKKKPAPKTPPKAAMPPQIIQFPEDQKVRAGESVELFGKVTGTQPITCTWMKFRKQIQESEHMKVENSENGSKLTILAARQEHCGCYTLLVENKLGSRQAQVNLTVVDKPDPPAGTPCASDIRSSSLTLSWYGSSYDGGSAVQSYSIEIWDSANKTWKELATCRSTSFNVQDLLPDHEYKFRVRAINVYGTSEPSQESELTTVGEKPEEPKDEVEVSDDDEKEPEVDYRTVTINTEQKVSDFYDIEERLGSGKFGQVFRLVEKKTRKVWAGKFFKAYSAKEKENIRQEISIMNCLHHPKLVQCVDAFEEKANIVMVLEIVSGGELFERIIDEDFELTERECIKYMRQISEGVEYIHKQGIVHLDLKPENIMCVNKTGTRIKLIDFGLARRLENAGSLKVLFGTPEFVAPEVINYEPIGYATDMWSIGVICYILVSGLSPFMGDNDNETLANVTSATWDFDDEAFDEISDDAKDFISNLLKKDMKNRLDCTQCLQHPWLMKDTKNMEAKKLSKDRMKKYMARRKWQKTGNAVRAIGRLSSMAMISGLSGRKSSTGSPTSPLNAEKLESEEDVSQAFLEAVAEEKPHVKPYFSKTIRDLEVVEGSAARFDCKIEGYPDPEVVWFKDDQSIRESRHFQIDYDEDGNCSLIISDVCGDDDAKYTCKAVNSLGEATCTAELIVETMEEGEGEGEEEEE
T1 sequence (P48729 whole entry): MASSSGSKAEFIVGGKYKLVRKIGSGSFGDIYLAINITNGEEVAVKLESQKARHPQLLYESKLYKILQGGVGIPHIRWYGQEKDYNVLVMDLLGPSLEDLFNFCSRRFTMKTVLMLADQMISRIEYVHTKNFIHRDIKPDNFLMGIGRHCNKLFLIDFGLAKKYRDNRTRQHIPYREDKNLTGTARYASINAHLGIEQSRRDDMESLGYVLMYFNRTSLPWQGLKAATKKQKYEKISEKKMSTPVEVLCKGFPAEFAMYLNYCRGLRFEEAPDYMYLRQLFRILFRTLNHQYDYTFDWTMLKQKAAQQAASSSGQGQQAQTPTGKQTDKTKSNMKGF
T30 sequence (Q9BXA7 whole entry): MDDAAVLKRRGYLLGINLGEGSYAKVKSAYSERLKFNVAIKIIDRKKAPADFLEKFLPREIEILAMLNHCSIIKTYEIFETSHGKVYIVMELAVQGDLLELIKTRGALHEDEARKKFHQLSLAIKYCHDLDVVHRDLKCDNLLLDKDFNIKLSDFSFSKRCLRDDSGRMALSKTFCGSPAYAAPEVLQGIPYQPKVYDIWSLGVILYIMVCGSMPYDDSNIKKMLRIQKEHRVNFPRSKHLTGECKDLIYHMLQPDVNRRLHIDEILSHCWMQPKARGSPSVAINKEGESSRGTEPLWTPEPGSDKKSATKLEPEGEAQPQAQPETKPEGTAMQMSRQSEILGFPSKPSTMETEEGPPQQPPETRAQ
T20 sequence (Q92772 whole entry): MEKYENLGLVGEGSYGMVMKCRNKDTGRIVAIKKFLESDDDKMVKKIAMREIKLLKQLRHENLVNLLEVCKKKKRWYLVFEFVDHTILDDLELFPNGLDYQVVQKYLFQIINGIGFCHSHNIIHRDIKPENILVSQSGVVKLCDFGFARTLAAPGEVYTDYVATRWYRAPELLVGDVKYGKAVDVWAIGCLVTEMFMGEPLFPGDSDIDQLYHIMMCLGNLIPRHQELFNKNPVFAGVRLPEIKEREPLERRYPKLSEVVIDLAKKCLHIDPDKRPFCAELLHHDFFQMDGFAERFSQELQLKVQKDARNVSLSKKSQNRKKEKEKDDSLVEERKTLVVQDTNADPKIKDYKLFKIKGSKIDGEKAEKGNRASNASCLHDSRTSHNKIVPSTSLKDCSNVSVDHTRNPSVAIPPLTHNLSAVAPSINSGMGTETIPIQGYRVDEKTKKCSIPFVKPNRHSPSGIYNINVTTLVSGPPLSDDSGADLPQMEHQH
T25 sequence (Q8IY84 whole entry): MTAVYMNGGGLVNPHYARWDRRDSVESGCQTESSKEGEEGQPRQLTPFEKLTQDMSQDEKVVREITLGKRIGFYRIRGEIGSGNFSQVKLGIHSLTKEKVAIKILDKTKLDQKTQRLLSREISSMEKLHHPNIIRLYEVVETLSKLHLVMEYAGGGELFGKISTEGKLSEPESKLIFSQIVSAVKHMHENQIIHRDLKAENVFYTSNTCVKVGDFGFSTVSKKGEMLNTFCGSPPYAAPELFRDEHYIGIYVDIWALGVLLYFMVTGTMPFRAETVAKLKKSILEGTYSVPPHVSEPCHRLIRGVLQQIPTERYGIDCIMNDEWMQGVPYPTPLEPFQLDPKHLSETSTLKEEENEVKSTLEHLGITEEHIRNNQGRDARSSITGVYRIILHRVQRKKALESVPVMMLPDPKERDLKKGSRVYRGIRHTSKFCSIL
T16 sequence (Q15208 whole entry): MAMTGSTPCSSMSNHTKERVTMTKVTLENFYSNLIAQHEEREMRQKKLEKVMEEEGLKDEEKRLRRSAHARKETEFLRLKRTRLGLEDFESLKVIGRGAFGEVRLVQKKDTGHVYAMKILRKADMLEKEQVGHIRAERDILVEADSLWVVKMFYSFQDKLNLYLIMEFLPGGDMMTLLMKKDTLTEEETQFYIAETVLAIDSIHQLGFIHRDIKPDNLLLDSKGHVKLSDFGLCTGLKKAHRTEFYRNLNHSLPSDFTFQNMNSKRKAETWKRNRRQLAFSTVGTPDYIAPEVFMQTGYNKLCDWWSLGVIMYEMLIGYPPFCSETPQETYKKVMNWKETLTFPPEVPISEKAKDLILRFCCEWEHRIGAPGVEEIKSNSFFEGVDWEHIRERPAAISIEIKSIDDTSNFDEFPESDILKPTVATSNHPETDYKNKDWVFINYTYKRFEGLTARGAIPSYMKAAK

Structure (SMILES): CN(C)C(=O)c1ccc(N2CCCN(c3ccnc4sc(C(N)=O)c(N)c34)CC2)cc1 [15u, 3-amino-4-(4-(4-(dimethylcarbamoyl)phenyl)-1,4-diazepan-1-yl)thieno[2,3-b]pyridine-2-carboxamide]
- % Ctrl (CSNK1A1): 33 % Ctrl
- % Ctrl (FLT3(N841I)): 90 % Ctrl
- % Ctrl (CSK): 86 % Ctrl
- % Ctrl (DYRK2): 100 % Ctrl
- % Ctrl (NEK1): 80 % Ctrl
- % Ctrl (MAP4K3): 91 % Ctrl
- % Ctrl (MYLK): 74 % Ctrl
- % Ctrl (LZK): 100 % Ctrl
- % Ctrl (VRK2): 84 % Ctrl
- % Ctrl (SGK): 86 % Ctrl
- % Ctrl (AXL): 99 % Ctrl
- % Ctrl (MST1R): 97 % Ctrl
- % Ctrl (DCAMKL3): 91 % Ctrl
- % Ctrl (CASK): 71 % Ctrl
- % Ctrl (JNK1): 68 % Ctrl
- % Ctrl (EGFR(T790M)): 98 % Ctrl
- % Ctrl (YSK4): 74 % Ctrl
- % Ctrl (IGF1R): 92 % Ctrl
- % Ctrl (NDR1): 100 % Ctrl
- % Ctrl (PIK3CA): 100 % Ctrl
- % Ctrl (EPHB3): 96 % Ctrl
- % Ctrl (INSR): 97 % Ctrl
- % Ctrl (CDKL2): 86 % Ctrl
- % Ctrl (LATS1): 89 % Ctrl
- % Ctrl (ERK8): 98 % Ctrl
- % Ctrl (SRPK1): 100 % Ctrl
- % Ctrl (MST1): 100 % Ctrl
- % Ctrl (NIM1): 56 % Ctrl
- % Ctrl [1]: 100 % Ctrl
- % Ctrl (MKK7): 100 % Ctrl
- % Ctrl [2]: 96 % Ctrl
- % Ctrl (FAK): 100 % Ctrl
- % Ctrl (EGFR(S752-I759del)): 86 % Ctrl
- % Ctrl (TSSK1B): 80 % Ctrl
- % Ctrl [3]: 73 % Ctrl

Structure (SMILES): [2H]C([2H])([2H])N(C(=O)c1ccc(N2CCCN(c3ccnc4sc(C(N)=O)c(N)c34)CC2)cc1)C([2H])([2H])[2H] [15u_D6, 3-amino-4-(4-(4-(bis(methyl-d3)carbamoyl)phenyl)-1,4-diazepan-1-yl)thieno[2,3-b]pyridine-2-carboxamide]
- % Ctrl (CSNK1A1): 12 % Ctrl
- % Ctrl (FLT3(N841I)): 86 % Ctrl
- % Ctrl (CSK): 92 % Ctrl
- % Ctrl (DYRK2): 97 % Ctrl
- % Ctrl (NEK1): 96 % Ctrl
- % Ctrl (MAP4K3): 95 % Ctrl
- % Ctrl (MYLK): 71 % Ctrl
- % Ctrl (LZK): 87 % Ctrl
- % Ctrl (VRK2): 56 % Ctrl
- % Ctrl (SGK): 83 % Ctrl
- % Ctrl (AXL): 96 % Ctrl
- % Ctrl (MST1R): 99 % Ctrl
- % Ctrl (DCAMKL3): 100 % Ctrl
- % Ctrl (CASK): 96 % Ctrl
- % Ctrl (JNK1): 30 % Ctrl
- % Ctrl (EGFR(T790M)): 87 % Ctrl
- % Ctrl (YSK4): 53 % Ctrl
- % Ctrl (IGF1R): 91 % Ctrl
- % Ctrl (NDR1): 80 % Ctrl
- % Ctrl (PIK3CA): 79 % Ctrl
- % Ctrl (EPHB3): 94 % Ctrl
- % Ctrl (INSR): 80 % Ctrl
- % Ctrl (CDKL2): 96 % Ctrl
- % Ctrl (LATS1): 97 % Ctrl
- % Ctrl (ERK8): 99 % Ctrl
- % Ctrl (SRPK1): 97 % Ctrl
- % Ctrl (MST1): 98 % Ctrl
- % Ctrl (NIM1): 78 % Ctrl
- % Ctrl [1]: 81 % Ctrl
- % Ctrl (MKK7): 85 % Ctrl
- % Ctrl [2]: 100 % Ctrl
- % Ctrl (FAK): 96 % Ctrl
- % Ctrl (EGFR(S752-I759del)): 100 % Ctrl
- % Ctrl (TSSK1B): 99 % Ctrl
- % Ctrl [3]: 59 % Ctrl
